In one test the target is T1, wildtype Kras / hSOS1 (Homo sapiens, UniProt P01116).
T1 construct: made in house; host or cells: E. coli BL21 (DE3)
Description: HTRF assay, wildtype Kras / SOS1 interaction. The class given is binding. The settings on record: compound nos. 401-703; read-out: IC50 against wildtype Kras. Put shortly:
(§1)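 GST-tagged K-Ras (mutant or wildtype) with anti-GST-Eu donor was mixed with His-hSOS1 and anti-6His-XL665 acceptor in HEPES pH 7.4 buffer with NaCl, DTT, BSA and Igepal. After ≥10 min, HTRF was read (ex 337 nm, em 620/665 nm); 665/620 ratios gave IC50 from duplicate dilution series.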
(In general: In TR-FRET formats the signal depends on donor and acceptor labels being close together.)

Test [1] deals with GST-tagged K-Ras mutant / His-tagged hSOS1 (Homo sapiens, UniProt P01116). Description: HTRF assay, K-Ras mutant / SOS1 interaction. The class given is binding. The note with it: compound nos. 401-703; read-out: IC50 against mutant Kras. A digest of the protocol: as §1

Bounds are passed on as bounds.

Broadly, the IC50 is the concentration at which inhibition is half-maximal.

T1 sequence (P01116 1-188 isoform P01116-2): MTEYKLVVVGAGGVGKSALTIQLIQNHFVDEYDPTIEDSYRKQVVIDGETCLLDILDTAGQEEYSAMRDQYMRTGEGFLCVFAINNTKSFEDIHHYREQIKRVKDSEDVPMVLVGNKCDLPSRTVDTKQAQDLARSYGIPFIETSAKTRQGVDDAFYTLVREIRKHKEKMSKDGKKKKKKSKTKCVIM
Chain of GST-tagged K-Ras mutant / His-tagged hSOS1 (P01116 whole entry G12D, form open): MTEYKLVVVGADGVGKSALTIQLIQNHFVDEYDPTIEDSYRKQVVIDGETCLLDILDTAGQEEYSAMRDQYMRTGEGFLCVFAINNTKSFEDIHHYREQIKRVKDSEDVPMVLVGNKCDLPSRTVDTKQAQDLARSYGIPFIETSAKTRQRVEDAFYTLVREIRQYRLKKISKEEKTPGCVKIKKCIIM

Take `Fc1c(-c2cccc3ccsc23)c(Cl)cc2c(N3CC4CCC(C3)N4)nc(OC[C@@]34CCCN3C[C@H](F)C4)nc12` [Compound 560, 7-(benzo[b]thiophen-7-yl)-4-(3,8-diazabicyclo[3.2.1]-octan-3-yl)-6-chloro-8-fluoro-2-(((2R,7aS)-2-fluorotetrahydro-1H-pyrrol-izin-7a(5H)-yl)methoxy)-quinazoline]: the half-maximal inhibitory concentration (IC50) (at wildtype Kras / hSOS1; in test [1]) was over 500 nM throughout.

`Cc1ccc2[nH]nc(C#N)c2c1-c1ccc2c(N3CC4CCC(C3)N4)nc(OC[C@@]34CCCN3C[C@H](F)C4)nc2c1F` [Compound 561, 4-(4-(3,8-diazabicyclo-[3.2.1]octan-3-yl)-8-fluoro-2-(((2R,7aS)-2-fluorotetra-hydro-1H-pyrrolizin-7a(5H)-yl)methoxy)quinazolin-7-yl)-5-methyl-1H-indazole-3-carbonitrile]: the concentration for half-maximal inhibition (IC50) (at wildtype Kras / hSOS1; in test [1]) was over 500 nM each time.

Consider `CN1CCC[C@H]1COc1nc(N2CCCCC(O)C2)c2cc(Cl)c(-c3cccc4sc(N)nc34)c(F)c2n1` (stereo partly drawn) [Compound 562, 1-(7-(2-aminobenzo[d]-thiazol-4-yl)-6-chloro-8-fluoro-2-(((S)-1-methyl-pyrrolidin-2-yl)methoxy)-quinazolin-4-yl)azepan-3-ol], for which the 50% inhibitory concentration (IC50) on wildtype Kras / hSOS1 is over 500 nM; in test [1] it was under 500 nM.

On to `Nc1c(F)ccc(-c2c(Cl)cc3c(N4CC5CCC(C4)N5)nc(OCC45CCCN4CCC5)nc3c2F)c1F` [Compound 563, 3-(4-(3,8-diazabicyclo-[3.2.1]octan-3-yl)-6-chloro-8-fluoro-2-((tetrahydro-1H-pyrrolizin-7a(5H)-yl)meth-oxy)quinazolin-7-yl)-2,6-difluoroaniline], for which the IC50 (at wildtype Kras / hSOS1; in test [1]) was over 500 nM each time.

As for `Nc1cc(-c2c(Cl)cc3c(N4CC5CCC(C4)N5)nc(OCC45CCCN4CCC5)nc3c2F)c2ccccc2c1` [Compound 564, 4-(4-(3,8-diazabicyclo-[3.2.1]octan-3-yl)-6-chloro-8-fluoro-2-((tetrahydro-1H-pyrrolizin-7a(5H)-yl)meth-oxy)quinazolin-7-yl)naph-thalen-2-amine], the IC50 (at wildtype Kras / hSOS1; in test [1]) was over 500 nM throughout.

Turning to `CN1CCC[C@H]1COc1nc(N2CC3CCC(C2)N3)c2cc(Cl)c(-c3cccc4sc(N)nc34)c(F)c2n1` [Compound 565, 4-(4-(3,8-diazabicyclo-[3.2.1]octan-3-yl)-6-chloro-8-fluoro-2-(((S)-1-methyl-pyrrolidin-2-yl)methoxy)-quinazolin-7-yl)benzo[d]-thiazol-2-amine], the IC50 is over 500 nM on wildtype Kras / hSOS1 and under 500 nM in test [1].

Regarding `Nc1nc2c(-c3c(Cl)cc4c(N5CC6CCNCC6C5)nc(OC[C@@]56CCCN5C[C@H](F)C6)nc4c3F)ccc(F)c2s1` (stereo partly drawn) [Compound 566, 4-(6-chloro-8-fluoro-2-(((2R,7aS)-2-fluorotetra-hydro-1H-pyrrolizin-7a(5H)-yl)methoxy)-4-(octahydro-2H-pyrrolo[3,4-c]pyridin-2-yl)quinazolin-7-yl)-7-fluoro-benzo[d]thiazol-2-amine], the IC50 was over 500 nM at wildtype Kras / hSOS1 and under 500 nM in test [1].

As to `Cc1ccnc(C(C)C)c1-n1c(=O)nc(N2CC3CCC(C2)N3)c2cc(F)c(-c3cc(O)cc4ccccc34)nc21` [Compound 567, 4-(3,8-diazabicyclo[3.2.1]-octan-3-yl)-6-fluoro-7-(3-hydroxynaphthalen-1-yl)-1-(2-isopropyl-4-methylpyri-din-3-yl)pyrido[2,3-d]pyrim-idin-2(1H)-one], the half-maximal inhibitory concentration (IC50) (at wildtype Kras / hSOS1; in test [1]) was over 500 nM each time.

Take `Nc1nc2c(-c3c(Cl)cc4c(N5C6CCNCC5CC6)nc(OC[C@@]56CCCN5C[C@H](F)C6)nc4c3F)ccc(F)c2s1` (stereo partly drawn) [Compound 568, 4-(4-(3,9-diazabicyclo-[4.2.1]-nonan-9-yl)-6-chloro-8-fluoro-2-(((2R,7aS)-2-fluorotetrahydro-1H-pyrrol-izin-7a(5H)-yl)methoxy)-quinazolin-7-yl)-7-fluoro-benzo[d]thiazol-2-amine]: the IC50 was over 500 nM at wildtype Kras / hSOS1 and under 500 nM in test [1].

With `Nc1nc2c(-c3c(Cl)cc4c(N5CC6CNCC6C5)nc(OC[C@@]56CCCN5C[C@H](F)C6)nc4c3F)ccc(F)c2s1` (stereo partly drawn) [Compound 569, 4-(6-chloro-8-fluoro-2-(((2R,7aS)-2-fluorotetra-hydro-1H-pyrrolizin-7a(5H)-yl)methoxy)-4-(hexahydro-pyrrolo[3,4-c]pyrrol-2(1H)-yl)quinazolin-7-yl)-7-fluoro-benzo[d]thiazol-2-amine], the IC50 on wildtype Kras / hSOS1 was over 500 nM; in test [1] it was under 500 nM.

For `N#CCN1C2CCC1CN(c1nc(OC[C@@]34CCCN3C[C@H](F)C4)nc3c(F)c(-c4ccc(F)c5sc(N)c(C#N)c45)c(Cl)cc13)C2` [Compound 570, 2-amino-4-(6-chloro-4-((1R,5S)-8-(cyanomethyl)-3,8-diazabicyclo[3.2.1]-octan-3-yl)-8-fluoro-2-(((2R,7aS)-2-fluorotetra-hydro-1H-pyrrolizin-7a(5H)-yl)methoxy)quinazolin-7-yl)-7-fluorobenzo[b]thio-phene-3-carbonitrile], the 50% inhibitory concentration (IC50) on wildtype Kras / hSOS1 was over 500 nM; in test [1] it was under 500 nM.

Regarding `Nc1nc2c(-c3c(Cl)cc4c(N5CC6CCC(C5)N6)nc(OCC56CCCC5CCC6)nc4c3F)cccc2s1` (centres unmarked) [Compound 571, 4-(4-(3,8-diazabicyclo-[3.2.1]octan-3-yl)-6-chloro-8-fluoro-2-((hexahydro-pentalen-3a(1H)-yl)meth-oxy)quinazolin-7-yl)benzo-[d]thiazol-2-amine], the IC50 (at wildtype Kras / hSOS1; in test [1]) was over 500 nM in each case.

Consider `CN1CCC[C@H]1COc1nc(N2CCCC(F)C(F)C2)c2cc(Cl)c(-c3cccc4sc(N)nc34)c(F)c2n1` (stereo partly drawn) [Compound 573, 4-(6-chloro-4-(3,4-difluoro-azepan-1-yl)-8-fluoro-2-(((S)-1-methylpyrrolidin-2-yl)methoxy)quinazolin-7-yl)-benzo[d]thiazol-2-amine], for which the concentration for half-maximal inhibition (IC50) was over 500 nM at wildtype Kras / hSOS1 and under 500 nM in test [1].

As for `N#Cc1c(N)sc2c(F)ccc(-c3c(Cl)cc4c(N5CCCS(=O)(=O)CC5)nc(OC[C@@]56CCCN5C[C@H](F)C6)nc4c3F)c12` [Compound 574, 2-amino-4-(6-chloro-4-(1,1-dioxido-1,4-thiazepan-4-yl)-8-fluoro-2-(((2R,7aS)-2-fluorotetrahydro-1H-pyrrol-izin-7a(5H)-yl)methoxy)-quinazolin-7-yl)-7-fluoro-benzo[b]thiophene-3-carbonitrile], the values for the IC50 (on wildtype Kras / hSOS1; in test [1]) were over 500 nM and under 500 nM, respectively.

For `CNCCN1CCCN(c2nc(OCC34CCCN3CCC4)nc3c(F)c(-c4ccc(F)c5sc(N)nc45)c(Cl)cc23)CC1` [Compound 575, 4-(6-chloro-8-fluoro-4-(4-(2-(methylamino)ethyl)-1,4-diazepan-1-yl)-2-((tetra-hydro-1H-pyrrolizin-7a(5H)-yl)methoxy)quinazolin-7-yl)-7-fluorobenzo[d]thiazol-2-amine], the values for the concentration for half-maximal inhibition (IC50) (at wildtype Kras / hSOS1; in test [1]) were over 500 nM and under 500 nM, respectively.

Take `Nc1nc2c(-c3c(Cl)cc4c(N5CCN(S(=O)(=O)C6CC6)CC(F)(F)C5)nc(OC[C@@]56CCCN5C[C@H](F)C6)nc4c3F)ccc(F)c2s1` [Compound 576]: the concentration for half-maximal inhibition (IC50) at wildtype Kras / hSOS1 was over 500 nM; in test [1] it was under 500 nM.

With `Nc1nc2c(-c3c(Cl)cc4c(N5CC6CCC(C5)N6)nc(OCC56CCCN5CCC6)nc4c3F)c(F)ccc2s1` [Compound 578, 4-(4-(3,8-diazabicyclo-[3.2.1]octan-3-yl)-6-chloro-8-fluoro-2-((tetrahydro-1H-pyrrolizin-7a(5H)-l)meth-oxy)quinazolin-7-yl)-5-fluorobenzo[d]thiazol-2-amine], the values for the half-inhibitory concentration (IC50) (at wildtype Kras / hSOS1; in test [1]) were over 500 nM and under 500 nM, respectively.

For the compound `Fc1c(-c2cccc3sccc23)c(Cl)cc2c(N3CC4CCC(C3)N4)nc(OC[C@@]34CCCN3C[C@H](F)C4)nc12` [Compound 579, 7-(benzo[b]thiophen-4-yl)-4-(3,8-diazabicyclo[3.2.1]-octan-3-yl)-6-chloro-8-fluoro-2-(((2R,7aS)-2-fluorotetrahydro-1H-pyrrol-izin-7a(5H)-yl)methoxy)-quinazoline], the concentration for half-maximal inhibition (IC50) (on wildtype Kras / hSOS1; in test [1]) was over 500 nM each time.

Consider `Fc1c(N2CCCc3ccccc32)ccc2c(N3CCCCCC3)nc(OCC34CCCN3CCC4)nc12` [Compound 580, 4-(azepan-1-yl)-7-(3,4-dihydroquinolin-1(2H)-yl)-8-fluoro-2-((tetrahydro-1H-pyrrolizin-7a(5H)-yl)meth-oxy)quinazoline], for which the half-maximal inhibitory concentration (IC50) (at wildtype Kras / hSOS1; in test [1]) was over 500 nM in each case.

Turning to `CN1CCC[C@H]1COc1nc(N2CCCC(C(N)=O)CC2)c2cc(Cl)c(-c3cccc4sc(N)nc34)c(F)c2n1` (stereo partly drawn) [Compound 581, 1-(7-(2-aminobenzo[d]-thiazol-4-yl)-6-chloro-8-fluoro-2-(((S)-1-methyl-pyrrolidin-2-yl)methoxy)-quinazolin-4-yl)azepane-4-carboxamide], the half-inhibitory concentration (IC50) at wildtype Kras / hSOS1 is over 500 nM; in test [1], under 500 nM.

Take `N#Cc1c(N)sc2c(F)ccc(-c3c(Cl)cc4c(N5CC6CCC(C5)O6)nc(OC[C@@]56CCCN5C[C@H](F)C6)nc4c3F)c12` [Compound 583, 4-(4-(8-oxa-3-azabicyclo-[3.2.1]-octan-3-yl)-6-chloro-8-fluoro-2-(((2R,7aS)-2-fluorotetrahydro-1H-pyrrol-izin-7a(5H)-yl)methoxy)-quinazolin-7-yl)-2-amino-7-fluorobenzo[b]thiophene-3-carbonitrile]: the IC50 at wildtype Kras / hSOS1 was over 500 nM; in test [1] it was under 500 nM.

For the compound `Oc1ccc2c(c1)N(c1ccc3c(N4CCCCCC4)nc(OCC45CCCN4CCC5)nc3c1F)CCC2` [Compound 584, 1-(4-(azepan-1-yl)-8-fluoro-2-((tetrahydro-1H-pyrrol-izin-7a(5H)-yl)methoxy)-quinazolin-7-yl)-1,2,3,4-tetrahydroquinolin-7-ol], the half-maximal inhibitory concentration (IC50) (on wildtype Kras / hSOS1; in test [1]) was over 500 nM each time.

The values above are taken from patent US20240254129A1, “HETEROCYCLIC COMPOUNDS AND USES THEREOF” (Kumquat Biosciences Inc., priority 2021, published 2024).
